# Where a name gives a salt, the structure may show the parent alone. Read-outs that look alike come from different tables or passages of the source.
# Legend:
# [1] = test system: Coagulase negative staphylococci CI 535; assay: MIC, microtiter broth dilution; type: cell-based; conditions: 18 h
# Protocol: (§1) The minimum inhibitory concentration (MIC), the lowest concentration of the antibiotic which inhibits growth of the test organism, is determined by the microtiter broth dilution method using 0.1 ml Muller-Hinton II broth (Baltimore Biological Laboratories) per well. A suitable oxygen scavenger (i.e., cysteine or dithiothreitol) is added to the assay medium for the testing of compounds according to Formula I because of the sensitivity of those compounds to oxidation. An inoculum level of 1-5×10^5 CFU/ml and a range of antibiotic concentrations (32 0.004 μg/ml) are used.
# [2] = test system: Coagulase negative staphylococci CI 664; assay: MIC, microtiter broth dilution; type: cell-based; conditions: 18 h
# Protocol: as §1
# E. coli ATCC 25922 = assay: MIC, microtiter broth dilution; type: cell-based; conditions: Escherichia coli, ATCC25922, 18 h
# Protocol: as §1
# [3] = test system: E. coli UBMS 90-5 (tetracycline-sensitive); assay: MIC, microtiter broth dilution; type: cell-based; conditions: Escherichia coli, 18 h
# Protocol: as §1
# [4] = test system: E. faecalis 12201 (vancomycin-resistant); assay: MIC, microtiter broth dilution; type: cell-based; conditions: Enterococcus faecalis, 18 h
# Protocol: as §1
# E. faecalis ATCC 29212 = assay: MIC, microtiter broth dilution; type: cell-based; conditions: Enterococcus faecalis, ATCC29212, 18 h
# Protocol: as §1
# E. faecalis CI 2735 = assay: MIC, microtiter broth dilution; type: cell-based; conditions: Enterococcus faecalis, CI2735, 18 h
# Protocol: as §1
# P. aeruginosa ATCC 27853 = assay: MIC, microtiter broth dilution; type: cell-based; conditions: Pseudomonas aeruginosa, ATCC27853, 18 h
# Protocol: as §1
# S. aureus ATCC 29213 = assay: MIC, microtiter broth dilution; type: cell-based; conditions: Staphylococcus aureus, ATCC29213, 18 h
# Protocol: as §1
# [5] = test system: S. aureus CI 2371 (methicillin-resistant); assay: MIC, microtiter broth dilution; type: cell-based; conditions: Staphylococcus aureus, 18 h
# Protocol: as §1
# [6] = test system: S. aureus CI 3300 (methicillin-resistant); assay: MIC, microtiter broth dilution; type: cell-based; conditions: Staphylococcus aureus, 18 h
# Protocol: as §1
# [7] = test system: S. aureus IVES 1983 (methicillin-resistant); assay: MIC, microtiter broth dilution; type: cell-based; conditions: Staphylococcus aureus, 18 h
# Protocol: as §1
# [8] = test system: S. aureus IVES 2943 (methicillin-resistant); assay: MIC, microtiter broth dilution; type: cell-based; conditions: Staphylococcus aureus, 18 h
# Protocol: as §1
# [9] = test system: S. aureus UBMS 88-4 (tetracycline-sensitive); assay: MIC, microtiter broth dilution; type: cell-based; conditions: Staphylococcus aureus, 18 h
# Protocol: as §1
# [10] = test system: S. aureus UBMS 90-3 (tetracycline-sensitive); assay: MIC, microtiter broth dilution; type: cell-based; conditions: Staphylococcus aureus, 18 h
# Protocol: as §1
# [11] = test system: S. haemolyticus AVAH 88-3; assay: MIC, microtiter broth dilution; type: cell-based; conditions: Staphylococcus haemolyticus, AVAH883, 18 h
# Protocol: as §1
# S. marcescens FPOR 87-33 = assay: MIC, microtiter broth dilution; type: cell-based; conditions: Serratia marcescens, FPOR8733, 18 h
# Protocol: as §1
# [12] = test system: E. coli S30 Ribosomes, tetM Variant (tetM protected ribosomes); assay: In vitro protein translation with E. coli S30 ribosomes, tetM variant; type: biochemical; conditions: for inhibition of protein synthesis on tetM protected ribosomes (in words): coupled transcription and translation system
# Protocol: The E. coli in vitro translation system can be used to study not only the mechanism of protein translation itself, but also the effect that various compounds may have on protein synthesis. The system can be set up to function as a coupled transcription and translation system or as a translation only system depending on whether DNA or RNA is added to initiate protein synthesis. In this way, compounds affecting either RNA synthesis and/or protein synthesis can be studied. Protein synthesis is monitored by the incorporation of radiolabeled amino acids into trichloroacetic acid precipitable material. The system used is based upon literature methods [G. Zubay, Ann. Rev. Genet., 7: 267-287(1973) and J. Collins, Gene, 6: 28-42 (1979)].
# The system used to study tetracycline protein synthesis inhibition is as follows:
# An S30 extract (supernatant from a 30,000×G centrifugation of lysed cells) of either tetracycline sensitive or tetracycline resistant (tetM+) cells is combined with a mixture of low molecular weight compounds required for protein synthesis which include a mixture of 19 amino acids, methionine, ^35 S-methionine, plasmid template DNA and either dimethylsulfoxide (DMSO) or the tetracycline to be tested dissolved and diluted in DMSO. This mixture is incubated at 37° C. for 30 minutes. Following the incubation, 2.5 μl of the 10 μl reaction is removed and added to 0.5 ml of 1N sodium hydroxide. The solution is incubated an additional 15 minutes at 37° C., to destroy any m-RNA and t-RNA. The incorporation of ^35 S-methionine is determined by precipitating the high molecular weight material in the sodium hydroxide aliquot with trichloroacetic acid (TCA), collecting the precipitated material on Whatman G/FC filters, drying the filters and counting the radioactivity retained on the filter. Percent inhibition (P.I.) of protein synthesis is determined by the following equation: [formula]
# [13] = test system: tetracycline sensitive and resistant Gram-positive and Gram-negative bacteria; assay: In vitro antibacterial evaluation, statements on the whole panel; type: cell-based
# Protocol: as §1
# [14] = tetM S30 with DTT, 1:2 Dilution
# [15] = tetM S30 with DTT, 1:4 Dilution
# [16] = tetM S30 with DTT, 1:8 Dilution
# [17] = tetM S30 with DTT, 1:16 Dilution
# [18] = tetM S30 with DTT, 1:32 Dilution
# [19] = tetM S30 with DTT, 1:64 Dilution
# [20] = in the presence of cysteine (0.05%)
smiles,measurement,setting,value
"CN(C)c1ccc(O)c2c1C[C@H]1C[C@H]3[C@H](N(C)C)C(O)=C(C(N)=O)C(=O)[C@@]3(O)C(O)=C1C2=O [B, 7-(Dimethylamino)-6-demethyl-6-deoxytetracycline hydrochloride]",MIC,[1]; no cysteine stated,8 µg/mL
same,MIC,[2]; no cysteine stated,0.015 µg/mL
same,MIC,E. coli ATCC 25922; no cysteine stated,0.25 µg/mL
same,MIC,[3]; no cysteine stated,0.5 µg/mL
same,MIC,[4]; no cysteine stated,4 µg/mL
same,MIC,E. faecalis ATCC 29212; no cysteine stated,0.25 µg/mL
same,MIC,E. faecalis CI 2735; no cysteine stated,4 µg/mL
same,MIC,P. aeruginosa ATCC 27853; no cysteine stated,4 µg/mL
same,MIC,S. aureus ATCC 29213; no cysteine stated,≤ 0.004 µg/mL
same,MIC,[5]; no cysteine stated,4 µg/mL
same,MIC,[6]; no cysteine stated,8 µg/mL
same,MIC,[7]; no cysteine stated,1 µg/mL
same,MIC,[8]; no cysteine stated,1 µg/mL
same,MIC,[9]; no cysteine stated,0.008 µg/mL
same,MIC,[10]; no cysteine stated,0.015 µg/mL
same,MIC,[11],0.12 µg/mL
same,MIC,S. marcescens FPOR 87-33; no cysteine stated,2 µg/mL
same,inhibition of protein synthesis on tetM protected ribosomes (in words),[12],unable to inhibit protein synthesis
same,% Inhibition,"[12]; tetM S30 no DTT, 1.0 mg/ml",0%
same,Counts,"[12]; tetM S30 no DTT, 1.0 mg/ml",281528
same,% Inhibition,"[12]; tetM S30 no DTT, 1:2 Dilution",0%
same,Counts,"[12]; tetM S30 no DTT, 1:2 Dilution",258633
same,% Inhibition,"[12]; tetM S30 no DTT, 1:4 Dilution",0%
same,Counts,"[12]; tetM S30 no DTT, 1:4 Dilution",248904
same,% Inhibition,"[12]; tetM S30 no DTT, 1:8 Dilution",0%
same,Counts,"[12]; tetM S30 no DTT, 1:8 Dilution",289595
same,% Inhibition,"[12]; tetM S30 no DTT, 1:16 Dilution",0%
same,Counts,"[12]; tetM S30 no DTT, 1:16 Dilution",287498
same,% Inhibition,"[12]; tetM S30 no DTT, 1:32 Dilution",0%
same,Counts,"[12]; tetM S30 no DTT, 1:32 Dilution",262329
same,% Inhibition,"[12]; tetM S30 no DTT, 1:64 Dilution",0%
same,Counts,"[12]; tetM S30 no DTT, 1:64 Dilution",249242
same,% Inhibition,"[12]; tetM S30 with DTT, 1.0 mg/ml",17%
same,Counts,"[12]; tetM S30 with DTT, 1.0 mg/ml",371475
same,% Inhibition,[12]; [14],26%
same,Counts,[12]; [14],331439
same,% Inhibition,[12]; [15],17%
same,Counts,[12]; [15],373168
same,% Inhibition,[12]; [16],6%
same,Counts,[12]; [16],421533
same,% Inhibition,[12]; [17],0%
same,Counts,[12]; [17],493679
same,% Inhibition,[12]; [18],0%
same,Counts,[12]; [18],490283
same,% Inhibition,[12]; [19],0%
same,Counts,[12]; [19],452837
same,Antibacterial potency in the presence of cysteine,[13]; in the presence of cysteine versus without,not enhanced
"CN(C)c1cc(N)c(O)c2c1C[C@H]1C[C@H]3[C@H](N(C)C)C(O)=C(C(N)=O)C(=O)[C@@]3(O)C(O)=C1C2=O [A, 9-Amino-7-(dimethylamino)-6-demethyl-6-deoxytetracycline hydrochloride]",MIC,[1]; [20],1 µg/mL
same,MIC,[2]; [20],0.003 µg/mL
same,MIC,E. coli ATCC 25922; [20],0.25 µg/mL
same,MIC,[3]; [20],0.25 µg/mL
same,MIC,[4]; [20],0.5 µg/mL
same,MIC,E. faecalis ATCC 29212; [20],0.06 µg/mL
same,MIC,E. faecalis CI 2735; [20],0.5 µg/mL
same,MIC,P. aeruginosa ATCC 27853; [20],2 µg/mL
same,MIC,S. aureus ATCC 29213; [20],0.008 µg/mL
same,MIC,[5]; [20],0.5 µg/mL
same,MIC,[6]; [20],0.25 µg/mL
same,MIC,[7]; [20],0.5 µg/mL
same,MIC,[8]; [20],0.5 µg/mL
same,MIC,[9]; [20],0.015 µg/mL
same,MIC,[10]; [20],0.015 µg/mL
same,MIC,"[11]; S. haemolyticus AVAH 88-3, in the presence of cysteine (0.05%), read-out: MIC",0.06 µg/mL
same,MIC,S. marcescens FPOR 87-33; [20],4 µg/mL
same,inhibition of protein synthesis on tetM protected ribosomes (in words),[12],effective in inhibiting protein synthesis
same,% Inhibition,"[12]; tetM S30 no DTT, 1.0 mg/ml",48%
same,Counts,"[12]; tetM S30 no DTT, 1.0 mg/ml",129780
same,% Inhibition,"[12]; tetM S30 no DTT, 1:2 Dilution",36%
same,Counts,"[12]; tetM S30 no DTT, 1:2 Dilution",158861
same,% Inhibition,"[12]; tetM S30 no DTT, 1:4 Dilution",18%
same,Counts,"[12]; tetM S30 no DTT, 1:4 Dilution",203184
same,% Inhibition,"[12]; tetM S30 no DTT, 1:8 Dilution",7%
same,Counts,"[12]; tetM S30 no DTT, 1:8 Dilution",231447
same,% Inhibition,"[12]; tetM S30 no DTT, 1:16 Dilution",0%
same,Counts,"[12]; tetM S30 no DTT, 1:16 Dilution",305633
same,% Inhibition,"[12]; tetM S30 no DTT, 1:32 Dilution",0%
same,Counts,"[12]; tetM S30 no DTT, 1:32 Dilution",349994
same,% Inhibition,"[12]; tetM S30 no DTT, 1:64 Dilution",0%
same,Counts,"[12]; tetM S30 no DTT, 1:64 Dilution",310723
same,% Inhibition,"[12]; tetM S30 with DTT, 1.0 mg/ml",68%
same,Counts,"[12]; tetM S30 with DTT, 1.0 mg/ml",145068
same,% Inhibition,[12]; [14],62%
same,Counts,[12]; [14],168574
same,% Inhibition,[12]; [15],49%
same,Counts,[12]; [15],226708
same,% Inhibition,[12]; [16],36%
same,Counts,[12]; [16],284606
same,% Inhibition,[12]; [17],16%
same,Counts,[12]; [17],375989
same,% Inhibition,[12]; [18],8%
same,Counts,[12]; [18],412967
same,% Inhibition,[12]; [19],0%
same,Counts,[12]; [19],507461
same,in vitro activity against tetracycline resistant strains carrying the tetM resistance determinant,"[13]; S. aureus UBMS 88-5, 90-1 and 90-2, E. coli UBMS 89-1 and 90-4",good in vitro activity
same,effectiveness vs. susceptible strains compared with B,"[13]; susceptible strains, comparator B",equally as effective
